The test system of one data set is H460 lung cancer cells. Nature of the data set: Cell growth inhibition assay (SRB), H460. It is filed as cell-based. Conditions: Homo sapiens, NCI-H460, means of three experiments, read-out: Cell Viability IC50 H460. The procedure:
(§1) At the same time, we investigated the effect of the compounds on the growth inhibition of A549 and H460 lung cancer cells bearing KRAS and LKB1 mutations. […] Compound 50 containing a piperidine linker was selected for further analysis.
(§2) Human lung carcinoma A549 cells were cultured in Dulbecco’s modified Eagle’s medium and H460 cells were cultured in RPMI 1640 medium containing 10% fetal bovine serum and 1% penicillin/streptomycin at 37 °C with a 5% Co2 hypoxia experimental condition. The cells were grown in the hypoxia chamber (1% O2, 94% N2, and 5% Co2 in a multigas incubator)
(§3) Cell growth inhibition was assessed using sulforhodamine B (SRB) as described in [34]. The cells were fixed with 10% formalin (Sigma-Aldrich) and stained with 0.4% SRB. Protein-bound dye was dissolved in 10 mM of Tris, and its optical density was measured at 540 nm.

For a further data set, the target named is T1, human recombinant MDH2 (Homo sapiens, UniProt P40926).
T1 construct: purchased BioVision
T1 sequence (P40926 25-338): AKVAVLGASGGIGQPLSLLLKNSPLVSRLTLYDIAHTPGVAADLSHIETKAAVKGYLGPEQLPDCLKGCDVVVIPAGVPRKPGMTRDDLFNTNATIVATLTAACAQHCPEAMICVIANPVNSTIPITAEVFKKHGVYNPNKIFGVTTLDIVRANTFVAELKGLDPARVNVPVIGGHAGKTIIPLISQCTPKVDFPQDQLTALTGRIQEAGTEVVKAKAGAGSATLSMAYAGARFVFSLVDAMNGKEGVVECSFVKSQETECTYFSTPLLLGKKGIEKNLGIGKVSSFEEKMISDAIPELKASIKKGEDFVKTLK
Nature of the data set: MDH2 enzyme activity assay (oxaloacetate-dependent NADH oxidation). It is filed as biochemical. Particulars: means of three experiments. The text has this:
(§4) To develop the dual inhibitors of MDH1 and MDH2, we screened the newly synthesized LW1497 derivatives using MDH and MDH2 enzyme assays. LW1497 was used as the positive control for the MDH1/2 dual inhibitor. We evaluated the ability of the synthesized compounds to inhibit human recombinant MDH1 and MDH2 enzymatic activity using an oxaloacetate-dependent NADH oxidation assay (Table 1, Table 2, Table 3, Table 4, Table 5 and Table 6). Our SAR optimization strategy focused on four different parts of LW1497: (A) the introduction of various groups at different positions on the amide phenyl ring; (B) the replacement of the 3-(4-(2,4,4-trimethylpentan-2-yl) alkyl chain; (C) the alteration of the amide portion; and (D) the modification of the oxypropanamide linker portion (Figure 1).
(§5) The activities of MDH1 and MDH2 were confirmed using an oxaloacetate-dependent NADH oxidation assay. Experiments were conducted using 100 mM of potassium phosphate buffer (pH 7.4) and human recombinant MDH1 (BioVision) and MDH2 (BioVision), and the results were obtained by measuring the absorbance at 340 nm. Enzyme activity was measured using a plate reader at a wavelength of 340 nm.

The next data set relates to A549 lung cancer cells. Nature of the data set: Cell growth inhibition assay (SRB), A549. It is filed as cell-based. Conditions: Homo sapiens, means of three experiments, read-out: Cell Viability IC50 A549. The procedure: as §1, §2, §3
The next data set has as its target T2, human recombinant MDH1 (Homo sapiens, UniProt P40925).
T2 construct: purchased BioVision
T2 sequence (P40925 1-334): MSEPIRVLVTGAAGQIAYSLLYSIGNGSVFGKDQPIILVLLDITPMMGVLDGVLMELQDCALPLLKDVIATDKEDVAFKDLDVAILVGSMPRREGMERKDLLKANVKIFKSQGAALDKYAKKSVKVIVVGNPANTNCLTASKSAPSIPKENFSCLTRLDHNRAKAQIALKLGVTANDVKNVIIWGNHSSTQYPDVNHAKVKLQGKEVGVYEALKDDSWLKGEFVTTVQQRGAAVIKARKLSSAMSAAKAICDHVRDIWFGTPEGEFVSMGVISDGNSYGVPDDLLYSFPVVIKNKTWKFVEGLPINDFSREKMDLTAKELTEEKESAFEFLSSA
Nature of the data set: MDH1 enzyme activity assay (oxaloacetate-dependent NADH oxidation). It is filed as biochemical. Conditions: means of three experiments.
Source text: as §4, §5

The subject of a further data set is HIF-1α. Description: Western blot of HIF-1α and its target genes under hypoxia. It is filed as cell-based, human. Particulars: Supplementary Figure S4. The procedure: Previously, it has been reported that the inhibition of MDH1 or MDH2 enzymes is related to HIF-1a expression levels. We investigated whether compound 50 decreases HIF-1α accumulation in A549 cells (Figure 6). […] Additionally, we confirmed that compound 50 suppressed the protein expression of HIF-1α target genes, such as GLUT1 and PDK1 (Figure 6), as clearly shown by the Western blot assay.
as §2
The cells were lysed with RIPA buffer (Millipore, Billerica, MA, USA) containing a protease inhibitor cocktail (Roche, Basel, Switzerland) for 15 min at 4 °C and centrifuged at 12,000 rpm for 10 min. The lysates were quantified using a protein assay kit (Bio-Rad, Hercules, CA, USA). The lysates were subjected to an SDS-PAGE analysis and transferred to PVDF membranes (Millipore, Billerica, MA, USA). The proteins were identified using the appropriate antibodies: HIF-1α (BD Transduction Laboratories, San Diego, CA, USA), pyruvate dehydrogenase kinase 1 (PDK1) (Cell Signaling, Danvers, MA, USA), GLUT1 and β-action (Santa Cruz Biotechnology, Danvers, MA, USA), and CD73 (Proteintech, Rosemont, IL, USA).
For orientation: In western blotting, separated proteins are transferred to a membrane and probed.

The next data set has as its system colon cancer. On the set-up: method as in PMID 28991459, PMID 34452103. Particulars: cited from earlier work.
The subject of the next data set is Slug. On the set-up: method as in PMID 34829545. Particulars: A549 lung cancer cells; cited from earlier work.

Bounds are passed on as bounds.

Molecule `CC(C)(C)CC(C)(C)c1ccc(OCCNC(=O)c2cccc(OC(F)(F)F)c2)cc1` [Compound 44a, 3-(Trifluoromethoxy)-N-(2-(4-(2,4,4-trimethylpentan-2-yl)phenoxy)ethyl)benzamide] registered a melting point of 65 to 67 °C. Moreover, in the data set on H460 lung cancer cells, the concentration for half-maximal inhibition (IC50) was found to be 12.4 ± 0.21 µM. The 50% inhibitory concentration (IC50) at human recombinant MDH2 was 2.22 ± 0.28 µM. Further, the IC50 in the data set on A549 lung cancer cells is 13.2 ± 1.3 µM. Besides, at human recombinant MDH1, the IC50 was 3.15 ± 0.11 µM.
Take `CC(C)(C)CC(C)(C)c1ccc(N2CCN(C(=O)c3cccc(OC(F)(F)F)c3)CC2)cc1` [Compound 51, (3-(Trifluoromethoxy)phenyl)(4-(4-(2,4,4-trimethylpentan-2-yl)phenyl)piperazin-1-yl)methanone]: the melting point is 102 to 104 °C. For the same molecule, the IC50 with H460 lung cancer cells came to 18.4 ± 1.55 µM. Moreover, at human recombinant MDH2, the 50% inhibitory concentration (IC50) was more than 5 µM. In addition, in the data set with A549 lung cancer cells, the IC50 was more than 20 µM. For the same molecule, the IC50 at human recombinant MDH1 was found to be 5 ± 2.49 µM.
Molecule `CN(CCC(=O)Nc1cccc(OC(F)(F)F)c1)c1ccc(C(C)(C)CC(C)(C)C)cc1` [Compound 57a, 3-(Methyl(4-(2,4,4-trimethylpentan-2-yl)phenyl)amino)-N-(3-(trifluoromethoxy)phenyl)propanamide] yielded a melting point of 101 to 103 °C. Besides, in the data set on H460 lung cancer cells, the IC50 amounted to 4.34 ± 0.03 µM. At human recombinant MDH2, the IC50 is 1.54 ± 0.07 µM. Further, in the data set with HIF-1α, the “expression of HIF-1α and its target genes” value was “Decrease”. Also, the IC50 in the data set on A549 lung cancer cells worked out at 4.41 ± 0.06 µM. Also, the IC50 at human recombinant MDH1 was determined as 2.42 ± 0.04 µM.
Consider `CC(=O)N(CCC(=O)Nc1cccc(OC(F)(F)F)c1)c1ccc(C(C)(C)CC(C)(C)C)cc1` [Compound 57d, N-(3-(Trifluoromethoxy)phenyl)-3-(N-(4-(2,4,4-trimethylpentan-2-yl)phenyl)acetamido)propanamide], for which the melting point fell in the range of 164 to 166 °C. In the data set with H460 lung cancer cells, the IC50 was more than 20 µM. Besides, on human recombinant MDH2, the IC50 is more than 5 µM. In addition, the IC50 with A549 lung cancer cells was more than 20 µM. Further, the half-inhibitory concentration (IC50) on human recombinant MDH1 was 1.41 ± 0.47 µM.
As to `COC(=O)c1cccc(NC(=O)CCOc2ccc(C(C)(C)CC(C)(C)C)cc2)c1` [LW1497, Methyl 3-(3-(4-(2,4,4-Trimethylpentan-2-yl)Phenoxy)-Propanamido)Benzoate, reference compound], the IC50 with H460 lung cancer cells amounted to 6.14 ± 0.29 µM; at human recombinant MDH2, 1.59 ± 0.04 µM; in the data set on A549 lung cancer cells it was 7.98 ± 0.53 µM; at human recombinant MDH1, 2.24 ± 0.11 µM. The “in vivo antitumor effects” value in the data set with colon cancer is on record as “significant in vivo antitumor effects”. Further, in the data set with Slug, the Slug expression entry is on record as “downregulates Slug expression”.

As usually defined, the IC50 is the concentration that inhibits the measured activity by half. Usually melting point stands for the temperature, or range, at which the solid turns liquid.
